pIC50: −log10 of the molar value.
Molecular target: T1, rat hippocampal α7 nAChR (endogenous, CA1 stratum radiatum interneurons) (Rattus norvegicus, UniProt Q05941)
T1 construct: gene Chrna7; native full-length homopentamer in rat hippocampal CA1 interneurons in brain slices
Assay: whole-cell voltage clamp, choline-induced current, rat CA1 interneurons in slice
Settings: 10 mM choline puffs; antagonist; -70 mV; pH 7.4; room temperature; approximate, read from concentration-response curve; voltage-independent; native receptor, α7β2 possibly mixed; read-out: 50% inhibition of ICh

T1 sequence (Q05941 23-502): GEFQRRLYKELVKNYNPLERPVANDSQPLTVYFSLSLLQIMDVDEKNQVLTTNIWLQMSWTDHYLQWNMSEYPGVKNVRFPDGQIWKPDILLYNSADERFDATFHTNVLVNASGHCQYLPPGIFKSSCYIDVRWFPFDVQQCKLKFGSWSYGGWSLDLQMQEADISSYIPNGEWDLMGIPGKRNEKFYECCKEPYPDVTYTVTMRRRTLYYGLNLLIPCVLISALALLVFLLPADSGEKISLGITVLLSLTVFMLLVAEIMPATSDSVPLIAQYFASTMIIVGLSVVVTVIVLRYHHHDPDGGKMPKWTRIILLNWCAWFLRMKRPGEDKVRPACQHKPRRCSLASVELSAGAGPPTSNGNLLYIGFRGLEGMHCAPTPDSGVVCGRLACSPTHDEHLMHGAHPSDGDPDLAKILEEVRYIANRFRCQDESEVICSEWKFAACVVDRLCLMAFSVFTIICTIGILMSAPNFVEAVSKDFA

CCCCCCCOc1ccc(OCC[N+]2(C)CCCCC2)cc1 [12a]
pIC50: ~5.30
